Data as given in the NIST ThermoML archive (doi:10.1021/acs.jced.8b00213).

Legend:
[1] = xn = mol fraction of the nth substance listed; details: 100 kPa, Liquid, x1 = 0.25; for electrical conductivity: Alternating current cell with electrodes; for viscosity: Falling or rolling sphere viscometry; for speed of sound: Single path-length method; for mass density: Vibrating tube method
[2] = refractive index (Na D-line) (dimensionless); xn = mol fraction of the nth substance listed; details: 100 kPa, Liquid, Standard Abbe refractometry, x1 = 0.25

C[N+](C)(C)Cc1ccccc1.[Cl-] [trimethylbenzylammonium chloride] + OCCOCCO
Details	electrical conductivity, [1] [S/m]	mass density, [1] [kg/m3]	refractive index, [2]	speed of sound, [1] [m/s]	viscosity, [1] [mPa·s]
283.15 K	0.088	1120.06	1.4954	1782.6	263.4
288.15 K	0.109	1116.91	1.494	1769	185.4
293.15 K	0.132	1113.75	1.4925	1755.8	134.1
298.15 K	0.165	1110.6	1.4911	1742.9	98.6
303.15 K	0.201	1107.46	1.4897	1730.2	74.8
308.15 K	0.254	1104.33	1.4884	1717.7	57.9
313.15 K	0.311	1101.21	1.4869	1705.3	44.4
318.15 K	0.356	1098.09	1.4855	1693	34.8
323.15 K	0.398	1094.99	1.4841	1680.8	27.8
328.15 K	0.474	1091.89	1.4826	1668.7	23.2
333.15 K	0.539	1088.79	1.4813	1656.6	18.7
338.15 K	0.611	1085.7	1.4798	1644.7	16
343.15 K	0.681	1082.63	1.4784	1633.1	14.2

C[N+](C)(C)Cc1ccccc1.[Cl-] [trimethylbenzylammonium chloride] + OCCO
Details	electrical conductivity, [1] [S/m]	mass density, [1] [kg/m3]	refractive index, [2]	speed of sound, [1] [m/s]	viscosity, [1] [mPa·s]
283.15 K	0.263	1110.06	1.4995	1856.7	101.9
288.15 K	0.32	1107	1.498	1843.6	76.1
293.15 K	0.391	1103.95	1.4966	1830.8	58.2
298.15 K	0.461	1100.92	1.4951	1818	45.3
303.15 K	0.552	1097.89	1.4935	1805.3	35.9
308.15 K	0.643	1094.87	1.4921	1792.7	29
313.15 K	0.75	1091.85	1.4907	1780.2	23.9
318.15 K	0.872	1088.84	1.4893	1767.8	19.9
323.15 K	0.997	1085.83	1.4878	1755.4	16.8
328.15 K	1.12	1082.83	1.4864	1743	14.3
333.15 K	1.25	1079.82	1.4849	1730.7	12.3
338.15 K	1.41	1076.82	1.4835	1718.5	10.7
343.15 K	1.56	1073.83	1.482	1706.6	9.5

CCCC[N+](CCCC)(CCCC)Cc1ccccc1.[Cl-] [benzyltributylammonium chloride] + OCCO
Details	electrical conductivity, [1] [S/m]	mass density, [1] [kg/m3]	refractive index, [2]	speed of sound, [1] [m/s]	viscosity, [1] [mPa·s]
283.15 K	0.03	1045.37	1.4993	1734.9	901.4
288.15 K	0.039	1042.15	1.4979	1716.3	598.4
293.15 K	0.048	1039	1.4963	1698.9	415.2
298.15 K	0.064	1035.88	1.4947	1682.2	286
303.15 K	0.081	1032.74	1.4932	1666.2	211
308.15 K	0.099	1029.6	1.4917	1650.5	155.5
313.15 K	0.122	1026.44	1.4901	1635.2	117.1
318.15 K	0.148	1023.29	1.4886	1620.1	89.9
323.15 K	0.181	1020.13	1.4871	1605.2	70.7
328.15 K	0.219	1016.97	1.4855	1590.5	55.8
333.15 K	0.262	1013.82	1.484	1576	43.6
338.15 K	0.315	1010.67	1.4825	1561.7	34.9
343.15 K	0.365	1007.53	1.4809	1547.9	28.1

CCCC[N+](CCCC)(CCCC)Cc1ccccc1.[Cl-] [benzyltributylammonium chloride] + OCCOCCO
Details	electrical conductivity, [1] [S/m]	mass density, [1] [kg/m3]	refractive index, [2]	speed of sound, [1] [m/s]	viscosity, [1] [mPa·s]
283.15 K	0.019	1063.94	1.4957	1706.8	961.86
288.15 K	0.025	1060.76	1.4945	1689.5	644.25
293.15 K	0.032	1057.65	1.4929	1673.2	433.54
298.15 K	0.04	1054.57	1.4909	1658.1	310.37
303.15 K	0.052	1051.5	1.4893	1643.5	224.9
308.15 K	0.066	1048.41	1.4878	1629.5	168.37
313.15 K	0.081	1045.31	1.486	1615.6	125.21
318.15 K	0.099	1042.22	1.4849	1602	96.78
323.15 K	0.115	1039.12	1.4836	1588.6	76.23
328.15 K	0.13	1036.03	1.4815	1575.3	62.63
333.15 K	0.154	1032.94	1.4804	1562.1	50.43
338.15 K	0.178	1029.85	1.4786	1549.2	40.68
343.15 K	0.207	1026.78	1.4776	1536.7	32.76

C[N+](C)(C)Cc1ccccc1.[Cl-] [trimethylbenzylammonium chloride] + OCC(O)CO
Details	electrical conductivity, [1] [S/m]	mass density, [1] [kg/m3]	refractive index, [2]	speed of sound, [1] [m/s]	viscosity, [1] [mPa·s]
283.15 K	0.012	1190.87	1.5126	1992.6	–
288.15 K	0.019	1187.92	1.5114	1970.8	1874.9
293.15 K	0.027	1184.97	1.5102	1953	1170.9
298.15 K	0.039	1182.02	1.5089	1937.6	753.5
303.15 K	0.055	1178.99	1.5078	1923.4	501.5
308.15 K	0.077	1176.07	1.5064	1910.1	342.7
313.15 K	0.104	1173.14	1.5052	1897.2	238.3
318.15 K	0.138	1170.19	1.5039	1884.6	171.8
323.15 K	0.181	1167.23	1.5027	1872.3	126.7
328.15 K	0.231	1164.25	1.5014	1860	95.4
333.15 K	0.283	1161.27	1.5002	1847.9	73
338.15 K	0.34	1158.29	1.4989	1835.8	58.2
343.15 K	0.413	1155.33	1.4977	1824.2	46.3

CCCC[N+](CCCC)(CCCC)Cc1ccccc1.[Cl-] [benzyltributylammonium chloride] + OCCOCCOCCO
Details	electrical conductivity, [1] [S/m]	mass density, [1] [kg/m3]	refractive index, [2]	speed of sound, [1] [m/s]	viscosity, [1] [mPa·s]
283.15 K	0.013	1077.97	1.4936	1710.1	738.7
288.15 K	0.017	1074.64	1.4921	1692.4	506
293.15 K	0.021	1071.36	1.4906	1675.8	356.9
298.15 K	0.027	1068.09	1.4889	1659.8	256.5
303.15 K	0.035	1064.81	1.4874	1644.2	188.5
308.15 K	0.043	1061.53	1.4857	1629.2	142.4
313.15 K	0.054	1058.25	1.4842	1614.3	109.1
318.15 K	0.067	1054.97	1.4827	1599.8	85.2
323.15 K	0.082	1051.7	1.4811	1585.4	67.7
328.15 K	0.098	1048.43	1.4795	1571.2	54.4
333.15 K	0.114	1045.18	1.4779	1557.1	43.3
338.15 K	0.145	1041.92	1.4764	1543.3	34.9
343.15 K	0.174	1038.69	1.4748	1530	28.3

CCCC[N+](CCCC)(CCCC)Cc1ccccc1.[Cl-] [benzyltributylammonium chloride] + OCC(O)CO
Details	electrical conductivity, [1] [S/m]	mass density, [1] [kg/m3]	refractive index, [2]	speed of sound, [1] [m/s]	viscosity, [1] [mPa·s]
283.15 K	0.003	1112.02	1.5095	1908	–
288.15 K	0.005	1108.9	1.5079	1866.4	–
293.15 K	0.007	1105.78	1.5065	1833	–
298.15 K	0.009	1102.66	1.5051	1805.3	2328.1
303.15 K	0.013	1099.54	1.5036	1782	1709.2
308.15 K	0.019	1096.41	1.5021	1761.7	1112.1
313.15 K	0.025	1093.28	1.5006	1743.5	740.9
318.15 K	0.038	1090.07	1.4992	1726.8	497.7
323.15 K	0.047	1086.95	1.4977	1711.2	346.1
328.15 K	0.065	1083.85	1.4962	1696	254.6
333.15 K	0.086	1080.72	1.4948	1681.5	185.3
338.15 K	0.109	1077.58	1.4933	1667.3	138.1
343.15 K	0.138	1074.43	1.4917	1653.9	105
